# Test results: US5798336A, “Antimicrobial peptides” (priority 1995, dated 1998)
# Like-named read-outs stand apart in the source and are kept apart here. Where a SMILES comes first, the peptide text is derived from it.
# Assays:
# [1] = system: P. aeruginosa ATCC 27853
# [2] = system: N. gonorrhoeae strain WS1
# [3] = system: S. aureus strain 8325-4; conditions: strain 8325-4, 500
SMILES,"Log Kill (500 μg/ml) P. aeruginosa ATCC 27853 ([1]; ATCC 27853, 500)","Log Kill (500 μg/ml) P. aeruginosa ATCC 278533 ([1]; ATCC 27853, 500)","Log Kill (500 μg/ml) N. gonorrhoeae strain WS1 ([2]; strain WS1, 500)","Log Kill (500 μg/ml) N. gonorrhoeae strain WSI ([2]; strain WS1, 500)",Log Kill (500 μg/ml) S. aureus strain 8325-4 [3],"Log Kill (500 μg/ml) P. aeruginosa ATCC 27853 ([1]; Table 6, crude peptides 500 μg/ml, about 10^7 CFU/ml, 1/100 strength HBSS)","Log Kill (500 μg/ml) N. gonorrhoeae strain WS1 ([2]; Table 6, crude peptides 500 μg/ml, 1/100 strength HBSS)"
CC(C)C[C@H](NC(=O)CNC(=O)[C@H](CCC(=O)O)NC(=O)[C@H](CCC(N)=O)NC(=O)[C@H](C)NC(=O)[C@H](CCCNC(=N)N)NC(=O)[C@@H]1CCCN1C(=O)[C@H](CC(C)C)NC(=O)[C@H](C)NC(=O)[C@@H](NC(=O)[C@@H]1CCCN1C(=O)[C@H](CC(N)=O)NC(=O)[C@@H](NC(=O)[C@H](CC(N)=O)NC(=O)[C@H](CCCNC(=N)N)NC(=O)[C@H](CC(N)=O)NC(=O)[C@H](CCCNC(=N)N)NC(=O)[C@H](CCCNC(=N)N)NC(=O)[C@@H](NC(=O)[C@@H](N)CCCNC(=N)N)C(C)C)C(C)C)C(C)C)C(=O)O [CG 97-116] (H-RVRRNRNVNPVALPRAQEGL-OH),5.93 log,0.22 log,-0.21 log,0.2 log,-0.1 log,,
CC(C)C[C@H](NC(=O)[C@@H](NC(=O)[C@H](Cc1ccccc1)NC(=O)[C@H](CC(=O)O)NC(=O)[C@H](CCC(=O)O)NC(=O)[C@H](CCCNC(=N)N)NC(=O)[C@@H](NC(=O)[C@H](CC(C)C)NC(=O)[C@H](Cc1ccccc1)NC(=O)CNC(=O)CNC(=O)[C@H](CS)NC(=O)[C@H](CCCNC(=N)N)NC(=O)[C@H](CO)NC(=O)[C@H](CCC(N)=O)NC(=O)CNC(=O)[C@H](C)NC(=O)[C@@H]1CCCN1C(=O)[C@H](CO)NC(=O)[C@@H](N)CCC(N)=O)C(C)C)C(C)C)C(=O)O [CG 21-40] (H-QSPAGQSRCGGFLVREDFVL-OH),-0.034 log,,0.05 log,,,,
CC[C@H](C)[C@H](NC(=O)[C@H](CC(N)=O)NC(=O)[C@H](Cc1c[nH]cn1)NC(=O)[C@H](C)NC(=O)CNC(=O)[C@H](CC(C)C)NC(=O)[C@@H](NC(=O)[C@@H](NC(=O)[C@H](CC(N)=O)NC(=O)[C@@H](NC(=O)[C@H](CC(N)=O)NC(=O)[C@H](CO)NC(=O)CNC(=O)[C@H](Cc1c[nH]c2ccccc12)NC(=O)[C@H](CS)NC(=O)[C@H](Cc1c[nH]cn1)NC(=O)[C@H](C)NC(=O)[C@H](C)NC(=O)[C@@H](N)[C@@H](C)O)[C@@H](C)CC)C(C)C)[C@@H](C)O)C(=O)N[C@@H](CCC(N)=O)C(=O)O [CG 41-60] (H-TAAHCWGSNINVTLGAHNIQ-OH),0.5 log,,-0.09 log,,,,
CSCC[C@H](NC(=O)[C@H](CO)NC(=O)[C@@H](NC(=O)[C@H](CCCNC(=N)N)NC(=O)CNC(=O)[C@H](Cc1c[nH]c2ccccc12)NC(=O)CNC(=O)[C@H](C)NC(=O)[C@@H](NC(=O)[C@@H](NC(=O)[C@H](CS)NC(=O)[C@H](CC(C)C)NC(=O)[C@@H](NC(=O)CNC(=O)[C@@H]1CCCN1C(=O)[C@@H](N)CCCNC(=N)N)[C@@H](C)O)[C@@H](C)O)C(C)C)C(C)C)C(=O)N[C@@H](CCCNC(=N)N)C(=O)N[C@@H](CCCNC(=N)N)C(=O)NCC(=O)N[C@H](C(=O)O)[C@@H](C)O [CG 117-136] (H-RPGTLCTVAGWGRVSMRRGT-OH),5.8 log,5.88 log,,,5.34 log,,
CC[C@H](C)[C@H](NC(=O)[C@H](CCCNC(=N)N)NC(=O)[C@H](CC(C)C)NC(=O)[C@H](CS)NC(=O)[C@H](CCC(N)=O)NC(=O)[C@H](CCCNC(=N)N)NC(=O)[C@H](CC(=O)O)NC(=O)[C@H](CCCNC(=N)N)NC(=O)[C@H](CCC(N)=O)NC(=O)[C@@H](NC(=O)[C@H](CCCNC(=N)N)NC(=O)[C@H](CC(C)C)NC(=O)[C@H](CCC(N)=O)NC(=O)[C@@H](NC(=O)[C@H](CCC(=O)O)NC(=O)[C@H](CCCNC(=N)N)NC(=O)[C@H](CC(C)C)NC(=O)[C@@H](NC(=O)[C@@H](N)CC(=O)O)[C@@H](C)O)C(C)C)C(C)C)C(=O)N[C@@H](Cc1ccccc1)C(=O)O [CG 137-156] (H-DTLREVQLRVQRDRQCLRIF-OH),,,,,,0.01 log,0.43 log
CC[C@H](C)[C@H](NC(=O)CNC(=O)[C@H](Cc1c[nH]cn1)NC(=O)[C@H](C)NC(=O)[C@@H](NC(=O)[C@H](CC(N)=O)NC(=O)[C@H](CC(N)=O)NC(=O)[C@H](CS)NC(=O)[C@H](CC(C)C)NC(=O)[C@H](CC(C)C)NC(=O)[C@@H]1CCCN1C(=O)CNC(=O)CNC(=O)[C@H](CO)NC(=O)[C@H](CC(=O)O)NC(=O)CNC(=O)[C@H](CCCCN)NC(=O)[C@@H](N)Cc1ccccc1)C(C)C)C(=O)N[C@H](C(=O)N[C@@H](CO)C(=O)N[C@@H](Cc1ccc(O)cc1)C(=O)O)C(C)C [CG 177-197] (H-FKGDSGGPLLCNNVAHGIVSY-OH),-0.79 log,,0.68 log,,,,
CC[C@H](C)[C@H](NC(=O)[C@H](CCC(N)=O)NC(=O)[C@H](CCCNC(=N)N)NC(=O)[C@H](CCCNC(=N)N)NC(=O)[C@@H]1CCCN1C(=O)[C@H](CC(=O)O)NC(=O)[C@H](Cc1ccc(O)cc1)NC(=O)[C@H](CO)NC(=O)CN)C(=O)N[C@@H](CS)C(=O)N[C@H](C(=O)NCC(=O)N[C@@H](CC(=O)O)C(=O)N[C@@H](CCCNC(=N)N)C(=O)N[C@@H](CCCNC(=N)N)C(=O)N[C@@H](CCC(=O)O)C(=O)N[C@@H](CCCNC(=N)N)C(=O)N[C@@H](CCCCN)C(=O)N[C@@H](C)C(=O)N[C@@H](C)C(=O)O)C(C)C [CG 157-176] (H-GSYDPRRQICVGDRRERKAA-OH),1.02 log,,-0.18 log,,,,
CC(C)C[C@H](NC(=O)[C@@H](NC(=O)CNC(=O)[C@@H]1CCCN1C(=O)[C@@H](N)CCCNC(=N)N)[C@@H](C)O)C(=O)N[C@@H](CS)C(=O)N[C@H](C(=O)N[C@H](C(=O)N[C@@H](C)C(=O)NCC(=O)N[C@@H](Cc1c[nH]c2ccccc12)C(=O)NCC(=O)N[C@@H](CCCNC(=N)N)C(=O)O)C(C)C)[C@@H](C)O [CG 117-129] (H-RPGTLCTVAGWGR-OH),0.86 log,,0.05 log,,0 log,,
CC[C@H](C)[C@H](NC(=O)[C@H](CC(=O)O)NC(=O)[C@H](CC(N)=O)NC(=O)[C@H](CCC(N)=O)NC(=O)[C@@H](NC(=O)[C@@H](NC(=O)[C@H](CCCNC(=N)N)NC(=O)[C@H](CCC(N)=O)NC(=O)[C@H](CC(N)=O)NC(=O)[C@H](Cc1ccc(O)cc1)NC(=O)[C@H](CCC(N)=O)NC(=O)[C@@H]1CCCN1C(=O)[C@@H](N)Cc1c[nH]cn1)[C@@H](C)O)[C@@H](C)CC)C(=O)N[C@@H](CCSC)C(=O)N[C@@H](CC(C)C)C(=O)N[C@@H](CC(C)C)C(=O)N[C@@H](CCC(N)=O)C(=O)N[C@@H](CC(C)C)C(=O)N[C@@H](CO)C(=O)N[C@@H](CCCNC(=N)N)C(=O)O [CG 77-96] (H-HPQYNQRTIQNDIMLLQLSR-OH),0.06 log,,0.24 log,,,,
